According to patent publication US7713965B2, “7-substituted 3-carboxy-oxadiazino-quinolone derivatives, their preparation and their application as anti-bacterials” (Vetoquinol SA, priority 2008, dated 2010):
Values after ≈ are worked out from the molar mass of the structure shown.

Tests used:
Assay type in all cases: cell-based
[1] = tested on: Staphylococcus aureus (s = susceptible); test: MIC determination by microdilution in liquid medium, Sta aur s; conditions: susceptible strain
[2] = tested on: M. bovirhinis; test: MIC determination by microdilution in liquid medium, M. bovirhinis; conditions: Mycoplasma
[3] = tested on: Mannheimia haemolytica (r = resistant); test: MIC determination by microdilution in liquid medium, Man hae r; conditions: resistant strain
[4] = tested on: E. faecalis ATCC 29212; test: MIC determination by microdilution in liquid medium, E. faecalis ATCC 29212; conditions: Enterococcus faecalis, ATCC29212, read-out: MIC E. fae-calis ATCC 29212
[5] = tested on: E. coli ATCC 25922; test: MIC determination by microdilution in liquid medium, E. coli ATCC 25922; conditions: Escherichia coli, ATCC25922
[6] = tested on: Mannheimia haemolytica (s = susceptible); test: MIC determination by microdilution in liquid medium, Man hae s; conditions: susceptible strain
[7] = tested on: Escherichia coli; test: MIC determination by microdilution in liquid medium, E coli
[8] = tested on: Pseudomonas aeruginosa (s = susceptible); test: MIC determination by microdilution in liquid medium, Pse aer s; conditions: susceptible strain
[9] = tested on: Clostridium perfringens; test: microbe, parasite or virus in culture; conditions: read-out: MIC Clo per
[10] = tested on: Staphylococcus aureus (r = resistant); test: MIC determination by microdilution in liquid medium, Sta aur r; conditions: read-out: MIC Sta aur r
[11] = tested on: Bordetella bronchiseptica; test: MIC determination by microdilution in liquid medium, Bor bron
[12] = tested on: Pseudomonas aeruginosa (r = resistant); test: MIC determination by microdilution in liquid medium, Pse aer r; conditions: read-out: MIC Pse aer r
[13] = tested on: Streptococcus uberis; test: MIC determination by microdilution in liquid medium, Str ube
[14] = tested on: Mycoplasma bovis; test: MIC determination by microdilution in liquid medium, Myc bov; conditions: Mycoplasmopsis bovis

Structure (SMILES) | MIC [1] | MIC [2] | MIC [3] | MIC [4] | MIC [5] | MIC [6] | MIC [7] | MIC [8] | MIC [9] | MIC [10] | MIC [11] | MIC [12] | MIC [13] | MIC [14]
CN1COc2c(N3CC[C@@H](NC(=O)C(F)(F)F)C3)c(F)cc3c(=O)c(C(=O)O)cn1c23 [Example 29, 8-Fluoro-3-methyl-6-oxo-9-[(R)-3-(2,2,2-trifluoro-acetylamino)-pyrrolidin-1-yl]-2,3-dihydro-6H-1-oxa-3,3a-diaza-phenalene-5-carboxylic acid] | 0.12 µg/mL (≈ 0.27 µM) | 1 µg/mL (≈ 2.25 µM) | 8 µg/mL (≈ 18 µM) | 1 to 2 µg/mL (≈ 2.25 to 4.5 µM) | 0.06 µg/mL (≈ 0.135 µM) | 0.03 µg/mL (≈ 0.0675 µM) | 0.06 µg/mL (≈ 0.135 µM) | 0.25 µg/mL (≈ 0.563 µM) | 0.25 µg/mL (≈ 0.563 µM) | 8 µg/mL (≈ 18 µM) | > 1 µg/mL | 4 µg/mL (≈ 9 µM) | 0.5 µg/mL (≈ 1.13 µM) | 0.5 µg/mL (≈ 1.13 µM)
CN1COc2c(N3C[C@@H](N)C(C)(C)C3)c(F)cc3c(=O)c(C(=O)O)cn1c23 [Example 34, 9-((S)-4-Amino-3,3-dimethyl-pyrrolidin-1-yl)-8-fluoro-3-methyl-6-oxo-2,3-dihydro-6H-1-oxa-3,3a-diaza-phenalene-5-carboxylic acid] | < 0.03 µg/mL | 0.12 µg/mL (≈ 0.319 µM) | 8 µg/mL (≈ 21.3 µM) | 0.25 to 0.5 µg/mL (≈ 0.664 to 1.33 µM) | 0.03 µg/mL (≈ 0.0797 µM) | 0.03 µg/mL (≈ 0.0797 µM) | 0.03 µg/mL (≈ 0.0797 µM) | 0.5 µg/mL (≈ 1.33 µM) | < 0.03 µg/mL | 2 µg/mL (≈ 5.31 µM) | 0.5 µg/mL (≈ 1.33 µM) | 8 µg/mL (≈ 21.3 µM) | 0.12 µg/mL (≈ 0.319 µM) | 0.5 µg/mL (≈ 1.33 µM)
CN1COc2c(N3CCC(C(O)c4nccs4)C3)c(F)cc3c(=O)c(C(=O)O)cn1c23 (centres unmarked) [Example 38, 8-Fluoro-9-[3-(hydroxy-thiazol-2-yl-methyl)-pyrrolidin-1-yl]-3-methyl-6-oxo-2,3-dihydro-6H-1-oxa-3,3a-diaza-phenalene-5-carboxylic acid] | 0.06 µg/mL (≈ 0.134 µM) | 0.25 µg/mL (≈ 0.56 µM) | 16 µg/mL (≈ 35.8 µM) | 0.06 µg/mL (≈ 0.134 µM) | 0.12 µg/mL (≈ 0.269 µM) | 0.03 µg/mL (≈ 0.0672 µM) | 0.12 µg/mL (≈ 0.269 µM) | 4 µg/mL (≈ 8.96 µM) | < 0.03 µg/mL | 2 µg/mL (≈ 4.48 µM) | 1 µg/mL (≈ 2.24 µM) | 32 µg/mL (≈ 71.7 µM) | < 0.03 µg/mL | 0.12 µg/mL (≈ 0.269 µM)
CN1COc2c(N3CCC(C(N)c4nccs4)C3)c(F)cc3c(=O)c(C(=O)O)cn1c23 (centres unmarked) [Example 39, 9-[3-(Amino-thiazol-2-yl-methyl)-pyrrolidin-1-yl]-8-fluoro-3-methyl-6-oxo-2,3-dihydro-6H-1-oxa-3,3a-diaza-phenalene-5-carboxylic acid] | ≤ 0.03 µg/mL | 0.06 µg/mL (≈ 0.135 µM) | 16 µg/mL (≈ 35.9 µM) | 0.12 µg/mL (≈ 0.269 µM) | 0.03 to 0.12 µg/mL (≈ 0.0673 to 0.269 µM) | 0.03 µg/mL (≈ 0.0673 µM) | 0.25 µg/mL (≈ 0.561 µM) | 2 µg/mL (≈ 4.49 µM) | ≤ 0.03 µg/mL | 2 µg/mL (≈ 4.49 µM) | 0.5 µg/mL (≈ 1.12 µM) | 16 µg/mL (≈ 35.9 µM) | 0.12 µg/mL (≈ 0.269 µM) | 0.12 µg/mL (≈ 0.269 µM)
